# According to patent publication US20200384161A1, “COMPOSITE ANTI-RESTENOSIS DRUG FOR CORONARY DRUG-ELUTING STENT AND CONTROLLED RELEASE SYSTEM THEREOF” (XINXIN MEDICAL TECHNOLOGY (SHANGHAI) CO. LTD, priority 2017, published 2020):
# Tests used:
# [1] = cited from earlier work
# [2] = test system: VSMCs; conditions: Li Hui et al. 2010; cited from earlier work
# [3] = test system: primary endothelial cells of porcine coronary vessels; assay: In vitro effect of arsenic trioxide on primary porcine coronary endothelial cells (total cell number); format: cell-based
# Source text: (§1) FIGS. 1 and 2 show the effects of arsenic trioxide on primary smooth muscle cells and primary endothelial cells of porcine coronary vessels in in vitro experiments. In the figures, the vertical axis represents the total number of cells in the wells of the culture plate, and the horizontal axis represents the concentration of the arsenic trioxide solution. Each curve represents the effect of arsenic trioxide at various concentrations on apoptosis (decrease in total number of cells) at a given time. […] However, for smooth muscle cells, cells apoptosis began even at low concentrations (3 μM) from Day 2 (FIG. 1). […] Arsenic trioxide may induce apoptosis of smooth muscle cells while having poor inhibitory effect on endothelial cells or even promoting their growth.
# [4] = test system: primary smooth muscle cells of porcine coronary vessels; assay: In vitro effect of arsenic trioxide on primary porcine coronary vascular smooth muscle cells (total cell number); format: cell-based
# Source text: as §1
substance,measurement,setting,value
arsenic trioxide,solubility in common solvents,[1]; common (organic) solvents such as ethanol,cannot be dissolved
same,solubility in water,[1]; only one crystal form out of three,slightly soluble
same,mitochondrial transmembrane potential (Δψm),[2],could induce a decrease of mitochondrial transmembrane potential
same,pro-apoptotic effect on endothelial cells,[3],not obvious
same,proliferation of endothelial cells,[3]; FIG. 2,promoting proliferation of endothelial cell to a certain extent
same,effect on endothelial cells,[3]; at a concentration of 12 μM or below (FIG. 2),little effect
same,effect on endothelial cell growth,[3]; first to the third day upon drug action,stimulation of growth
same,concentration of arsenic trioxide at which smooth muscle cell apoptosis began,"[4]; from Day 2, decrease in total number of cells (FIG. 1)",3 µM
same,pro-apoptotic effect on smooth muscle cells,[4]; when it reaches a certain dose,strong pro-apoptotic effect
